Experimental data published in patent US20020015942A1, “Method for cancer screening” (priority 1996, published 2002).

Columns and labels:
A10 cells [1] = assay: Frequency of endoapoptotic bodies after incubation with cytochalasin B; format: cell-based, Rat; details: 48 h, 2 μg/ml in culture medium
A10 cells [2] = test system: A10 cells
Procedure: A10 cells were stained with acridine orange at different times after exposure to hydrogen peroxide (0.2 mM) and at least 500 cells were scored at each time interval to obtain the above graph. Lines 1-4 represent the frequency of apoptotic nuclei having characteristic fluorescence patterns.
Acridine orange and DAPI staining: Cells grown on glass coverslips were stained for 3-4 minutes in 100 μg/ml acridine orange (Sigma Chemicals Ltd) dissolved in HBSS; coverslips were rinsed briefly in HBSS and mounted in HBSS [19]. Cells were examined immediately in a Zeiss Axioskop fluorescence microscope equipped with filter #9 and epi-illumination. Double stranded DNA fluoresces green while single-stranded RNA and DNA fluoresce red after staining with acridine orange. In most of the experiments, endoapoptosis was scored by the presence of the endoapoptotic nuclei (mini cells) in very early (bright green fluorescence), mid phase (red fluorescence), late phase (no specific fluorescence) or the presence of a ‘ghost’ with no nuclear matrix, with or without fragmentation of the mini cells.

A10 cells [3] = details: hydrogen peroxide-induced apoptotic cells
Procedure: Electron microscopy: For studying endoapoptosis in transformed foci, NIH3T3 cells were grown on Thermanox plastic coverslips and the cells were processed as monolayer by fixation with 2% glutaraldehyde in 0.1 M cacodylate buffer, pH 7.3, overnight at 5° C., and post-fixed with 1% osmium tetroxide acid. Cells were in block stained overnight in 0.5% aqueous uranyl acetate, dehydrated in acetone and embedded in Epon resin. Thin sections were cut, stained with uranyl acetate and lead citrate and viewed in a Philips 300 electron microscope. In some cases the monolayer of cells were scraped with rubber policeman after fixation and pelleted and processed for sectioning as above.

[4] = 0.02 mM hydrogen peroxide, acridine orange

Row | SMILES | effect on frequency of endoapoptotic bodies (A10 cells [1]) | induction of classic apoptosis (A10 cells [2]; 0.02 mM hydrogen peroxide in the culture medium, followed over 24 hours) | persistence of red nuclear fluorescence (A10 cells [2]; [4]) [h] | time after apoptotic death until nuclei displayed red fluorescence (A10 cells [2]; [4]) [h] | temporal changes in nuclear fluorescence pattern compared with 0.2 mM (A10 cells [2]; 0.1 mM hydrogen peroxide, acridine orange) | nuclear changes in transmission electron microscopy (A10 cells [3])
1 | C=C1[C@@H](C)[C@H]2[C@H](Cc3ccccc3)NC(=O)[C@]23OC(=O)/C=C/[C@H](O)CCC[C@@H](C)C/C=C/[C@H]3[C@@H]1O [cytochalasin B] | did not reduce the frequency of endoapoptotic bodies |  |  |  |  | 
2 | OO [hydrogen peroxide] |  | classic apoptosis was induced | 3 to 6 | 2 to 3 | induced similar changes with a 24 h delay | typical apoptotic changes in the nucleus such as chromatin marginization and condensation
